# Data as given in PMC6858497 (The Journal of physiology, 2019).
# Values joined by “and” are separate entries in the source; they are usually repeats but may differ in a detail not shown here. Identical values can stand only once. Like-named read-outs stand apart in the source and are kept apart here.
# Key:
# GluN1–1a/2B = GluN1–1a/2B (Rattus norvegicus, UniProt P35439+Q00960); test: Two-electrode voltage-clamp recordings, Xenopus oocytes; type: cell-based; conditions: for Spermine modulation (% control): 100 μM spermine, −20 mV
# GluN1–1a/2BC1/2DC2 = GluN1–1a/2BC1/2DC2 (Rattus norvegicus, UniProt P35439+Q00959+Q00960+Q62645, A876H/F846L/G856D/H848F/K857R/M851T/M860L/Q845K/R869K/V861L/V866F); test: as above; type: cell-based; conditions: for Spermine modulation (% control): 100 μM spermine, −20 mV
# GluN1–1a/2D = GluN1–1a/2D (Rattus norvegicus, UniProt P35439+Q62645); test: as above; type: cell-based; conditions: for Spermine modulation (% control): 100 μM spermine, −20 mV
# [1] = biological target: GluN1–1a A/A (GluN1/2A/2A) (Rattus norvegicus, UniProt P35439+Q00959); test: Outside-out patch-clamp recordings, fast application; type: cell-based
# [2] = biological target: GluN1–1a AC1/AC2 (GluN1/2AC1/2AC2) (Rattus norvegicus, UniProt P35439+Q00959); test: as above; type: cell-based
# GluN1–1a AC1/BC2 = GluN1–1a AC1/BC2 (Rattus norvegicus, UniProt P35439+Q00959+Q00960, A876H/F846L/G856D/H848F/K857R/M851T/M860L/Q845K/V861L); test: as above; type: cell-based
# GluN1–1a B/B = GluN1–1a B/B (Rattus norvegicus, UniProt P35439+Q00960); test: as above; type: cell-based
# GluN1–1a BC1/BC2 = GluN1–1a BC1/BC2 (Rattus norvegicus, UniProt P35439+Q00959+Q00960, A876H/F846L/G856D/H848F/K857R/M851T/M860L/Q845K/V861L); test: as above; type: cell-based
# GluN1–1a BC1/DC2 = GluN1–1a BC1/DC2 (Rattus norvegicus, UniProt P35439+Q00959+Q00960+Q62645, A876H/F846L/G856D/H848F/K857R/M851T/M860L/Q845K/R869K/V861L/V866F); test: as above; type: cell-based
# GluN1–1a D/D = GluN1–1a D/D (Rattus norvegicus, UniProt P35439+Q62645); test: as above; type: cell-based
# GluN1–1a DC1/DC2 = GluN1–1a DC1/DC2 (Rattus norvegicus, UniProt P35439+Q00959+Q62645, R869K/V866F); test: as above; type: cell-based
# [3] = biological target: GluN1–1b A/A (GluN1/2A/2A) (Rattus norvegicus, UniProt P35439+Q00959); test: as above; type: cell-based
# GluN1–1b AC1/AC2 = GluN1–1b AC1/AC2 (Rattus norvegicus, UniProt P35439+Q00959); test: as above; type: cell-based
# GluN1–1b AC1/BC2 = GluN1–1b AC1/BC2 (Rattus norvegicus, UniProt P35439+Q00959+Q00960, A876H/F846L/G856D/H848F/K857R/M851T/M860L/Q845K/V861L); test: as above; type: cell-based
# GluN1–1b B/B = GluN1–1b B/B (Rattus norvegicus, UniProt P35439+Q00960); test: as above; type: cell-based
# GluN1–1b BC1/BC2 = GluN1–1b BC1/BC2 (Rattus norvegicus, UniProt P35439+Q00959+Q00960, A876H/F846L/G856D/H848F/K857R/M851T/M860L/Q845K/V861L); test: as above; type: cell-based
# GluN1–1b BC1/DC2 = GluN1–1b BC1/DC2 (Rattus norvegicus, UniProt P35439+Q00959+Q00960+Q62645, A876H/F846L/G856D/H848F/K857R/M851T/M860L/Q845K/R869K/V861L/V866F); test: as above; type: cell-based
# GluN1–1b D/D = GluN1–1b D/D (Rattus norvegicus, UniProt P35439+Q62645); test: as above; type: cell-based
# GluN1–1b DC1/DC2 = GluN1–1b DC1/DC2 (Rattus norvegicus, UniProt P35439+Q00959+Q62645, R869K/V866F); test: as above; type: cell-based
# [4] = tested on: NMDAR-EPSCs in hippocampal CA1 pyramidal cells; test: Whole-cell patch-clamp of NMDAR-EPSCs in acute hippocampal slices; type: cell-based, mouse; conditions: 100 μM; +40 mV; P21–28 slices
# [5] = tested on: NMDAR-EPSCs in hippocampal interneurons (CA1 s.r./s.l.m.); test: as above; type: cell-based, mouse
# GluN1–1a/2A = GluN1–1a/2A (Rattus norvegicus, UniProt P35439+Q00959); conditions: 100 μM spermine, −20 mV
# GluN1–1a/2AC1/2BC2 = GluN1–1a/2AC1/2BC2 (Rattus norvegicus, UniProt P35439+Q00959+Q00960, A876H/F846L/G856D/H848F/K857R/M851T/M860L/Q845K/V861L); conditions: 100 μM spermine, −20 mV
# [6] = agonist concentration-response, isoform 1a
# [7] = 1 mM glutamate 3–5 ms, 100 μM glycine
# [8] = weighted deactivation time constant
# [9] = deactivation, single-exponential fit
# [10] = deactivation, two-exponential fit
# [11] = fitted percentage of the fast component
# [12] = at 100 μM, pH 7.4, holding potential −20 mV, isoform 1a
# GluN1–1a B/B, sequence (Q00960 27-1482, other chains not shown): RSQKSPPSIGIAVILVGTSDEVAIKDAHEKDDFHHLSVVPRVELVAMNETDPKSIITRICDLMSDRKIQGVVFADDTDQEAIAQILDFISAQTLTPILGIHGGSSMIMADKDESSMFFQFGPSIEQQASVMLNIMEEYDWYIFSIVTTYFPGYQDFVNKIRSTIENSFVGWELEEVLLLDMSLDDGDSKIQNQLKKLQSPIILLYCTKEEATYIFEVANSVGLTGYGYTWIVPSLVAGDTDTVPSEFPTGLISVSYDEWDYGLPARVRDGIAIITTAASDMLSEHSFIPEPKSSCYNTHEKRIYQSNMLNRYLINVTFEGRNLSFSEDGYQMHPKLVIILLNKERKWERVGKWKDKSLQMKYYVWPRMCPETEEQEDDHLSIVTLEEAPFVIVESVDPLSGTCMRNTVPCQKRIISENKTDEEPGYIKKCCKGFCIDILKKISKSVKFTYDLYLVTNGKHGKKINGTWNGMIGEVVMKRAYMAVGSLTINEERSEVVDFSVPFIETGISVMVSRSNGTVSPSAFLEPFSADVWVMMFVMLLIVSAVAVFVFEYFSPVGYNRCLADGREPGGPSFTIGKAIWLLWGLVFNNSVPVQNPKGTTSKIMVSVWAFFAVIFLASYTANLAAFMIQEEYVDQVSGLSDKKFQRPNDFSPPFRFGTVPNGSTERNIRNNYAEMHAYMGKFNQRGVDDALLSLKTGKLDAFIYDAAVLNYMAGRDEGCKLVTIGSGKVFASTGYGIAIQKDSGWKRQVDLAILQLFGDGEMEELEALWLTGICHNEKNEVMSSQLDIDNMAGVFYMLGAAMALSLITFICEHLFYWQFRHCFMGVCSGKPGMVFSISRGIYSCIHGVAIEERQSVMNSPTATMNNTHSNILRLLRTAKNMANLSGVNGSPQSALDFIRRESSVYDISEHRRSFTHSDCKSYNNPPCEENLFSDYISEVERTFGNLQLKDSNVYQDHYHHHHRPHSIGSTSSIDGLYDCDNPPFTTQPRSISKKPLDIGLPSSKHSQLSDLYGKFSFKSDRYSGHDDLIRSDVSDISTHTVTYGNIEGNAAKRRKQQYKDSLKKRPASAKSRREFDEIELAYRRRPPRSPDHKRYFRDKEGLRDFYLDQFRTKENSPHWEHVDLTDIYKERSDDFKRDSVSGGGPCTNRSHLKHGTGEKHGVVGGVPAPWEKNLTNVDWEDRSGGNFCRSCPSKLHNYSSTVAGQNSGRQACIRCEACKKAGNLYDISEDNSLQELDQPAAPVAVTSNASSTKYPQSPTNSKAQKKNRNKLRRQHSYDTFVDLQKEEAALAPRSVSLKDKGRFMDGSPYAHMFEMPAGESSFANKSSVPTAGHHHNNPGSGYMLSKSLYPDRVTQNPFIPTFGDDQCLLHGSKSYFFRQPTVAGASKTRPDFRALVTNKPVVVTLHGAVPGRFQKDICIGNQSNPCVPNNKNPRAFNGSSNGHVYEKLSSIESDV
# GluN1–1a/2B, sequence (Q00960 27-1482, other chains not shown): as above
# GluN1–1b B/B, sequence (Q00960 27-1482, other chains not shown): as above
compound,measurement,setting,value
N[C@@H](CCC(=O)O)C(=O)O [glutamate],nH (Hill coefficient),GluN1–1a/2B; [6],1.6
same,nH (Hill coefficient),GluN1–1a/2BC1/2DC2; [6],1.4
same,EC50,"GluN1–1a/2D; GluN1 isoform 1a, glutamate with 100 μM glycine, glycine with 300 μM glutamate",270 ± 10 nM
same,nH (Hill coefficient),GluN1–1a/2D; [6],1.7
same,rise time (10–90%),[1]; [7],3.9 ± 0.3 ms
same,τfast,"[1]; deactivation, single-exponential fit, 1 mM glutamate 3–5 ms, 100 μM glycine",87 ± 7 ms
same,τw,[1]; [8],"87 ± 7^#,$ ms"
same,rise time (10–90%),[2]; [7],4.2 ± 0.9 ms
same,τfast,[2]; [9],78 ± 13 ms
same,τw,[2]; [8],"78 ± 13 ^*^,#,$ ms"
same,rise time (10–90%),GluN1–1a AC1/BC2; [7],10.9 ± 6.2 ms
same,τfast,GluN1–1a AC1/BC2; [10],93 ± 27 ms
same,τslow,GluN1–1a AC1/BC2; [10],180 ± 62 ms
same,% fast,GluN1–1a AC1/BC2; [11],63 ± 19%
same,τw,GluN1–1a AC1/BC2; [8],"140 ± 10 ^*^,#,$ ms"
same,rise time (10–90%),GluN1–1a B/B; [7],14.9 ± 1.2 ms
same,τfast,GluN1–1a B/B; [10],240 ± 23 ms
same,τslow,GluN1–1a B/B; [10],1020 ± 72 ms
same,% fast,GluN1–1a B/B; [11],59 ± 5%
same,τw,GluN1–1a B/B; [8],"548 ± 45 ^*^,$ ms"
same,rise time (10–90%),GluN1–1a BC1/BC2; [7],15.1 ± 2.7 ms
same,τfast,GluN1–1a BC1/BC2; [10],205 ± 35 ms
same,τslow,GluN1–1a BC1/BC2; [10],1045 ± 129 ms
same,% fast,GluN1–1a BC1/BC2; [11],58 ± 8%
same,τw,GluN1–1a BC1/BC2; [8],"530 ± 60 ms and 533 ± 58 ^*^,$ ms"
same,rise time (10–90%),GluN1–1a BC1/DC2; [7],10.9 ± 2.5 ms
same,τfast,GluN1–1a BC1/DC2; [10],516 ± 42 ms
same,τslow,GluN1–1a BC1/DC2; [10],3521 ± 446 ms
same,% fast,GluN1–1a BC1/DC2; [11],54 ± 6%
same,τw,GluN1–1a BC1/DC2; [8],"1770 ± 120 ms and 1767 ± 117 ^*^,#,$ ms"
same,rise time (10–90%),GluN1–1a D/D; [7],6.2 ± 0.7 ms
same,τfast,GluN1–1a D/D; [10],832 ± 146 ms
same,τslow,GluN1–1a D/D; [10],7436 ± 890 ms
same,% fast,GluN1–1a D/D; [11],24 ± 3%
same,τw,GluN1–1a D/D; [8],"5714 ± 458 ^*^,# ms"
same,rise time (10–90%),GluN1–1a DC1/DC2; [7],8.6 ± 4.8 ms
same,τfast,GluN1–1a DC1/DC2; [10],527 ± 225 ms
same,τslow,GluN1–1a DC1/DC2; [10],6912 ± 848 ms
same,% fast,GluN1–1a DC1/DC2; [11],17 ± 7%
same,τw,GluN1–1a DC1/DC2; [8],"5700 ± 560 ms and 5700 ± 561 ^*^,# ms"
same,rise time (10–90%),[3]; [7],4.8 ± 0.3 ms
same,τfast,[3]; [9],56 ± 6 ms
same,τw,[3]; [8],"56 ± 6^#,$ ms"
same,rise time (10–90%),GluN1–1b AC1/AC2; [7],6.3 ± 2.8 ms
same,τfast,GluN1–1b AC1/AC2; [9],53 ± 7 ms
same,τw,GluN1–1b AC1/AC2; [8],"53 ± 7^#,$ ms"
same,rise time (10–90%),GluN1–1b AC1/BC2; [7],3.7 ± 0.5 ms
same,τfast,GluN1–1b AC1/BC2; [10],47 ± 4 ms
same,τslow,GluN1–1b AC1/BC2; [10],160 ± 25 ms
same,% fast,GluN1–1b AC1/BC2; [11],69 ± 12%
same,τw,GluN1–1b AC1/BC2; [8],"74 ± 5 ^*^,#,$ ms"
same,rise time (10–90%),GluN1–1b B/B; [7],10.3 ± 1.5 ms
same,τfast,GluN1–1b B/B; [10],81 ± 8 ms
same,τslow,GluN1–1b B/B; [10],208 ± 49 ms
same,% fast,GluN1–1b B/B; [11],58 ± 12%
same,τw,GluN1–1b B/B; [8],"155 ± 19 ^*^,$ ms"
same,rise time (10–90%),GluN1–1b BC1/BC2; [7],8.3 ± 1.6 ms
same,τfast,GluN1–1b BC1/BC2; [10],101 ± 15 ms
same,τslow,GluN1–1b BC1/BC2; [10],360 ± 89 ms
same,% fast,GluN1–1b BC1/BC2; [11],84 ± 6%
same,τw,GluN1–1b BC1/BC2; [8],"140 ± 10 ms and 138 ± 13 ^*^,$ ms"
same,rise time (10–90%),GluN1–1b BC1/DC2; [7],9.2 ± 1.3 ms
same,τfast,GluN1–1b BC1/DC2; [10],127 ± 31 ms
same,τslow,GluN1–1b BC1/DC2; [10],634 ± 132 ms
same,% fast,GluN1–1b BC1/DC2; [11],50 ± 15%
same,τw,GluN1–1b BC1/DC2; [8],"290 ± 120 ms and 288 ± 22 ^*^,#,$ ms"
same,rise time (10–90%),GluN1–1b D/D; [7],3.5 ± 0.4 ms
same,τfast,GluN1–1b D/D; [10],245 ± 32 ms
same,τslow,GluN1–1b D/D; [10],1609 ± 148 ms
same,% fast,GluN1–1b D/D; [11],40 ± 7%
same,τw,GluN1–1b D/D; [8],"992 ± 68 ^*^,# ms"
same,rise time (10–90%),GluN1–1b DC1/DC2; [7],4.5 ± 0.7 ms
same,τfast,GluN1–1b DC1/DC2; [10],256 ± 92 ms
same,τslow,GluN1–1b DC1/DC2; [10],1399 ± 141 ms
same,% fast,GluN1–1b DC1/DC2; [11],14 ± 4%
same,τw,GluN1–1b DC1/DC2; [8],"1230 ± 90 ms and 1230 ± 86 ^*^,# ms"
NCCCNCCCCNCCCN [spermine],Spermine modulation (% control),GluN1–1a/2B; pH 6.8,585 ± 29 % control
same,Spermine modulation (% control),GluN1–1a/2B; pH 7.4,211 ± 6 % control
same,Spermine modulation (% control),"GluN1–1a/2B; pH 7.4, listed as Spermine",211 % control
same,Relative Imax,GluN1–1a/2B; [12],211 ± 6%
same,Spermine modulation (% control),GluN1–1a/2BC1/2DC2; pH 6.8,233 ± 10 % control
same,Spermine modulation (% control),GluN1–1a/2BC1/2DC2; pH 7.4,150 ± 2 % control
same,Spermine modulation (% control),"GluN1–1a/2BC1/2DC2; pH 7.4, listed as Spermine",150 % control
same,Relative Imax,GluN1–1a/2BC1/2DC2; [12],150 ± 2%
same,Spermine modulation (% control),GluN1–1a/2D; pH 6.8,82 ± 1 % control
same,Spermine modulation (% control),GluN1–1a/2D; pH 7.4,71 ± 0.4 % control
same,Spermine modulation (% control),"GluN1–1a/2D; pH 7.4, listed as Spermine",71 % control
same,Relative Imax,GluN1–1a/2D; [12],71 ± 0.4%
same,"NMDAR-EPSC peak amplitude, % of baseline",[4],95 ± 5 % of baseline
same,"NMDAR-EPSC peak amplitude, % of baseline","[5]; 100 μM, +40 mV, P21–28 slices",137 ± 13 % of baseline
same,effect on EPSC decay time,"[5]; treatment versus baseline, paired t test, 10 μM (spermine 100 μM)",unchanged
same,Spermine modulation (% control),GluN1–1a/2A; pH 6.8,79 ± 1 % control
same,Spermine modulation (% control),GluN1–1a/2A; pH 7.4,72 % control and 72 ± 1 % control
same,Spermine modulation (% control),GluN1–1a/2AC1/2BC2; pH 6.8,95 ± 0.1 % control
same,Spermine modulation (% control),GluN1–1a/2AC1/2BC2; pH 7.4,80 ± 1 % control
